Patent US20070021357A1, “Treatment of inflammatory conditions” (Dynamis Therapeutics, Inc., priority 2005, published 2007)
Values joined by “and” are separate entries in the source; they are usually repeats but may differ in a detail not shown here. Equal values may be shown once.

Legend:
STZ-diabetic rats = experiment: Skin elasticity measurement (vacuum pull) in STZ-diabetic and normal rats; type: in vivo; conditions: 50 mg/kg daily, eight weeks, p=0.39
Description: Experiments were performed to determine the effects of DYN 12 on the loss of skin elasticity associated with diabetes. To this end, two groups of STZ-diabetic rats and two groups of normal rats were subjected to treatment with DYN 12 or saline. One group of STZ-diabetic rats (n=9) received daily subcutaneous injections of DYN 12 at 50 mg/kg for eight weeks, as did one group of normal rats (n=6). A group of control diabetic rats (n=10) and a group of normal rats (n=6) received saline instead of DYN 12. One rat was removed from the diabetic DYN 12 group after 2 weeks because its blood glucose readings were inconsistent (too low) with other diabetic rats.
A non-invasive procedure based on CyberDERM, Inc. technology utilizing a skin elasticity measurement device was used to test the effects of DYN 12 treatment on skin elasticity. The procedure provides for non-invasive measurement of skin elasticity based upon the amount of vacuum pull required to displace skin. A suction cup probe is adhered to an area of shaved skin in order to form an airtight seal. Then, a vacuum is applied to the area of the skin inside the suction cup until the skin is displaced past a sensor located inside the probe. Accordingly, the more pressure that is required to displace the skin, the less elastic the skin is.

3DG [1] = conditions: Kappler et al., 2002; cited from earlier work
[2] = Locus of 3-O-methyl sorbitollysine uptake in vivo (tissues, urine, plasma); design: species or system rats
Description: […] Urine was collected for 3 hours, after which the rats were sacrificed. The tissues to be analyzed were removed and freeze clamped in liquid nitrogen. Perchloric acid extracts of the tissues were used for metabolite analysis. The tissues examined were taken from the brain, heart, muscle, sciatic nerve, spleen, pancreas, liver, and kidney. Plasma was also analyzed.

diabetic rats = experiment: Skin elasticity/muscle strength measurement on alert, restrained rats; type: in vivo; conditions: preliminary data
Description: FIG. 15 is graphic illustration of the effects of DYN 12 (3-O-methylsorbitollysine) treatment on skin elasticity. Diabetic or normal rats were treated with DYN 12 (50 mg/kg daily) or saline for eight weeks and then subjected to skin elasticity tests. The four groups used included diabetic controls (saline injection; solid black bar), diabetics treated with DYN 12 (open bar), normal animal controls (saline injections; stippled bar), and normal animals treated with DYN 12 (cross-hatched bar). Data are expressed in kilopascals (kPA) and are shown as averages of the results obtained with each particular group of test subjects. Measurements were taken on the hind leg of the test subjects and were taken on an alert animal restrained by a technician.
Skin elasticity measurements were also taken on the test subjects as described above, but without sedating the test animals before measurement. FIG. 15 illustrates skin elasticity measurements taken on the hind leg of the test subjects while the subjects were alert and being restrained by a technician.
In these experiments, the animals were fiercely fighting restraint and the results are different.

3DG [3] = experiment: Plasma 3DG levels in diabetic and non-diabetic rats; type: in vivo; conditions: 50 mg/kg body weight injections in saline, within one week
Description: A cohort of twelve diabetic rats was divided into two groups of six. The first group received saline-only injections, and the second received injections of 3-O-methyl sorbitollysine (50 mg/kg body weight) in saline solution. The same procedure was conducted on a cohort of twelve non-diabetic rats.

COC(C(O)CNCCCCC(N)C(=O)O)C(O)C(O)CO (centres unmarked) [DYN 12, 3-O-methylsorbitollysine]
elasticity value in treated diabetic rats compared with non-diabetic rats treated with saline (STZ-diabetic rats): not statistically different
3DG levels in the plasma of diabetic and non-diabetic animals (3DG [1]): reduces 3DG levels
only tissue extract found to contain the compound ([2]; brain, heart, muscle, sciatic nerve, spleen, pancreas, liver, kidney examined 3 hours after i.p. injection): kidney
total 3OMeSL recovered ([2]; individual rats, urine plus kidneys, 13500 nmols injected, listed as 3OMeSL, in nmol): 12355 and 5235 and 13011 and 8257 and 7151 and 7193
% 3OMeSL recovered ([2]; individual rats, urine plus kidneys, of injected dose, listed as 3OMeSL): 91.5% and 38.8% and 96.4% and 61.2% and 53.0% and 53.3%
muscle strength measured while alert, vs diabetic rats not so treated (diabetic rats): stronger muscle strength
plasma 3DG levels (3DG [3]; Diabetic rats): 0.44 ± 0.10 µM
plasma 3DG levels (3DG [3]; Non-diabetic rats): 0.13 ± 0.02 µM
